Experiments:
Test in all cases: Cell proliferation assay (Alamar Blue)
Format in all cases: cell-based
BxPC3 = settings: Homo sapiens, BXPC-3, 96 h, BxPC3 cells, four days
Procedure: (§1) A representative cell-proliferation assay protocol using Alamar Blue dye (stored at 4°C, use 20ul per well) is described hereafter. 96-well plate setup and compound treatment • a. Split and trypsinize cells. • b. Count cells using hemocytometer. • c. Plate 4,000-5,000 cells per well in 100 µl of medium and seed into a 96-well plate according to the following plate layout. Add cell culture medium only to wells B10 to B12. Wells B1 to B9 have cells but no compound added. [formula] [formula] • d. Add 100 µl of 2X drug dilution to each well in a concentration shown in the plate layout above. At the same time, add 100 µl of media into the control wells (wells B10 to B12). Total volume is 200 µl/well. • e. Incubate four (4) days at 37°C, 5% CO2 in a humidified incubator. • f. Add 20µl Alamar Blue reagent to each well. • g. Incubate for four (4) hours at 37°C, 5% CO2 in a humidified incubator. • h. Record fluorescence at an excitation wavelength of 544nm and emission wavelength of 590nm using a microplate reader.
(§2) In the assays, cells are cultured with a test compound for approximately four days, the dye then is added to the cells and fluorescence of […] dye is detected after approximately four hours. Different types of cells can be utilized in the assays (e.g., HCT-116 human colorectal carcinoma cells, PC-3 human prostatic cancer cells and MiaPaca human pancreatic carcinoma cells). Anti-proliferative effects of representative compounds are provided hereafter.

PanC1 = settings: Homo sapiens, PANC-1, 96 h, PanC1 cells, four days
Procedure: as §1, §2

MDAMB231 = settings: Homo sapiens, MDA-MB-231, 96 h, MDAMB231 cells, four days
Procedure: as §1, §2

Row | IC50 (BxPC3) [µM] | IC50 (PanC1) [µM] | IC50 (MDAMB231) [µM] | SMILES
1 | 4.31 | 35.2 |  | O=C(O)c1ccc2c(c1)nc(Nc1cccc(C(F)(F)F)c1)c1ncncc12 [drawing 478]
2 | 0.7 | 8.03 |  | Nc1ncc2c(n1)c(Nc1ccc(F)c(Cl)c1)nc1cc(C(=O)O)ccc12 [drawing 487]
3 | 1.05 | 5.79 |  | C#Cc1cccc(Nc2nc3cc(C(=O)O)ccc3c3cnc(NC4CC4)nc23)c1 [drawing 470]
4 | 0.61 | 3.62 |  | Nc1ncc2c(n1)c(Nc1cccc(Cl)c1)nc1cc(C(=O)O)ccc12 [drawing 482]
5 | 1.95 | 4.61 |  | O=C(O)c1ccc2c(c1)nc(Nc1cccc(Cl)c1)c1nc(NC3CC3)ncc12 [drawing 477]
6 |  | > 50 |  | Fc1cc(Nc2nc3cc(-c4nnn[nH]4)ccc3c3cnccc23)ccc1Cl [drawing 454]
7 | 25.3 | > 50 |  | C#Cc1cccc(Nc2nc3cc(C(=O)O)ccc3c3cnc(NC4CCNCC4)nc23)c1 [drawing 473]
8 | 3.92 | 32.6 |  | COCCNc1ncc2c(n1)c(Nc1ccccc1)nc1cc(C(=O)O)ccc12 [drawing 463]
9 | 9.41 | 34.2 |  | O=C(O)c1ccc2c(c1)nc(Nc1ccccc1)c1nc(NCCCO)ncc12 [drawing 465]
10 | 8.88 | > 50 |  | Cc1ncc2c(n1)c(Nc1cccc(Cl)c1)nc1cc(C(=O)O)ccc12 [drawing 494]
11 | 3.55 | 3.37 |  | O=C(O)c1ccc2c(c1)nc(Nc1ccc(F)c(Cl)c1)c1ncncc12 [drawing 445]
12 | 2.16 | 5.02 |  | O=C(O)c1ccc2c(c1)nc(Nc1ccccc1)c1nc(NC3CC3)ncc12 [drawing 461]
13 | 20.9 | > 50 |  | NC(=O)CCNc1ncc2c(n1)c(Nc1cccc(Cl)c1)nc1cc(C(=O)O)ccc12 [drawing 497]
14 | 8.76 | 0.44 |  | CCOC(=O)CCNC(=O)c1ccc2c(c1)nc(Nc1cccc(C(F)(F)F)c1)c1nc(NC3CC3)ncc12 [drawing 514]
15 | 0.33 | > 50 |  | NC(=O)c1ccc2c(c1)nc(Nc1cccc(C(F)(F)F)c1)c1nc(NC3CC3)ncc12 [drawing 507]
16 | 10 | 2.03 |  | O=C(O)c1ccc2c(c1)nc(Nc1cccc(C(F)(F)F)c1)c1nc(NC3CC3)ncc12 [drawing 484]
17 | 2.73 | 16 |  | O=C(NC1CC1)c1ccc2c(c1)nc(Nc1cccc(C(F)(F)F)c1)c1nc(NC3CC3)ncc12 [drawing 508]
18 | 9.48 | 8.53 |  | O=C(O)c1ccc2c(c1)nc(Nc1ccc(F)c(Cl)c1)c1nc(NC3CC3)ncc12 [drawing 488]
19 | 3 | 18.9 |  | CNC(=O)c1ccc2c(c1)nc(Nc1cccc(C(F)(F)F)c1)c1nc(NC3CC3)ncc12 [drawing 509]
20 | 8.68 | 3.48 |  | COc1cccc(Nc2nc3cc(C(=O)O)ccc3c3cnc(NC4CC4)nc23)c1 [drawing 503]
21 | 3.16 | 20.9 |  | O=C(O)c1ccc2c(c1)nc(Nc1ccc(F)c(Cl)c1)c1nc(NCc3cccnc3)ncc12 [drawing 510]
22 | 2.37 | 1.61 |  | CCNc1ncc2c(n1)c(Nc1cccc(Cl)c1)nc1cc(C(=O)O)ccc12 [drawing 485]
23 | 49.6 | > 50 |  | CCOc1ncc2c(n1)c(Nc1cccc(C(F)(F)F)c1)nc1cc(C(=O)O)ccc12 [drawing 479]
24 | 36.9 | 33.2 |  | CC(C)Nc1ncc2c(n1)c(Nc1cccc(Cl)c1)nc1cc(C(=O)O)ccc12 [drawing 483]
25 | 2.6 | 27.2 |  | O=C(O)c1ccc2c(c1)nc(Nc1cccc(C(F)(F)F)c1)c1ccncc12 [drawing 500]
26 | 1.17 | 4.61 |  | C#Cc1cccc(Nc2nc3cc(C(=O)O)ccc3c3cnc(NCCOC)nc23)c1 [drawing 472]
27 | 23.5 | > 50 |  | O=C(O)c1ccc2c(c1)nc(Nc1ccccc1)c1nc(NCCO)ncc12 [drawing 464]

Row | IC50 (BxPC3) [µM] | IC50 (PanC1) [µM] | IC50 (MDAMB231) [µM] | SMILES
28 | 1.6 | 13.8 |  | C#Cc1cccc(Nc2nc3cc(C(=O)O)ccc3c3cnc(NC)nc23)c1 [drawing 475]
29 | 0.48 | 1.04 |  | C#Cc1cccc(Nc2nc3cc(C(=O)O)ccc3c3cnc(NCCCOCC)nc23)c1 [drawing 491]
30 | 8.36 | > 50 |  | O=C(O)c1ccc2c(c1)nc(Nc1ccccc1)c1nc(NC3CCNCC3)ncc12 [drawing 466]
31 | 40 | > 50 |  | C#Cc1cccc(Nc2nc3cc(C(=O)OC)ccc3c3cnc(NOC)nc23)c1 [drawing 495]
32 | 1.46 | > 50 |  | CNc1ncc2c(n1)c(Nc1ccc(F)c(Cl)c1)nc1cc(C(=O)O)ccc12 [drawing 486]
33 | 2.86 | 41.5 |  | COC(CNc1ncc2c(n1)c(Nc1ccc(F)c(Cl)c1)nc1cc(C(=O)O)ccc12)OC [drawing 506]
34 | 3 | 8.12 |  | C#Cc1cccc(Nc2nc3cc(C(=O)O)ccc3c3cnc(NCCC)nc23)c1 [drawing 471]
35 | 7.33 |  |  | O=C(O)c1ccc2c(c1)nc(Nc1ccc(F)c(Cl)c1)c1nc(NCc3ccncc3)ncc12 [drawing 511]
36 |  |  | 26.5 | CCOc1ncc2c(n1)c(Nc1cccc(C(F)(F)F)c1)nc1cc(C(=O)O)ccc12 [drawing 407]
37 |  |  | 7.12 | O=C(O)c1ccc2c(c1)nc(Nc1ccc(F)c(Cl)c1)c1nc(NC3CC3)ncc12 [drawing 416]
38 |  |  | > 50 | NC(=O)CCNc1ncc2c(n1)c(Nc1cccc(Cl)c1)nc1cc(C(=O)O)ccc12 [drawing 425]
39 |  |  | > 50 | O=C(O)c1ccc2c(c1)nc(Nc1ccccc1)c1nc(NCCCN3CCOCC3)ncc12 [drawing 397]
40 |  |  | 6.53 | Nc1ncc2c(n1)c(Nc1ccc(F)c(Cl)c1)nc1cc(C(=O)O)ccc12 [drawing 415]
41 |  |  | > 50 | NC(=O)c1ccc2c(c1)nc(Nc1cccc(C(F)(F)F)c1)c1nc(NC3CC3)ncc12 [drawing 435]
42 |  | > 50 |  | Clc1cccc(Nc2nc3cc(-c4nnn[nH]4)ccc3c3cnccc23)c1 [drawing 458]
43 |  |  | 6.87 | CCNc1ncc2c(n1)c(Nc1cccc(Cl)c1)nc1cc(C(=O)O)ccc12 [drawing 413]
44 |  |  | 10.5 | CNC(=O)c1ccc2c(c1)nc(Nc1cccc(C(F)(F)F)c1)c1nc(NC3CC3)ncc12 [drawing 437]
45 |  |  | > 50 | O=C(O)CCNc1ncc2c(n1)c(Nc1cccc(Cl)c1)nc1cc(C(=O)O)ccc12 [drawing 426]
46 |  |  | 4.27 | CC(C)OC(=O)Nc1ccc2c(c1)nc(Nc1cccc(C(F)(F)F)c1)c1nc(NC3CC3)ncc12 [drawing 441]
47 |  |  | 31.6 | C#Cc1cccc(Nc2nc3cc(C(=O)O)ccc3c3cnc(NCCOCC)nc23)c1 [drawing 418]
48 |  |  | > 50 | C#Cc1cccc(Nc2nc3cc(C(=O)OC)ccc3c3cnc(NOC)nc23)c1 [drawing 423]
49 |  |  | > 50 | O=C(O)c1ccc2c(c1)nc(Nc1ccccc1)c1nc(NCCO)ncc12 [drawing 392]
50 |  | > 50 |  | Fc1cccc(Nc2nc3cc(-c4nnn[nH]4)ccc3c3cnccc23)c1 [drawing 453]
51 |  |  | 33.7 | O=C(O)c1ccc2c(c1)nc(Nc1ccc(F)c(Cl)c1)c1nc(NCc3ccccn3)ncc12 [drawing 433]
52 |  |  | 12.1 | O=C(O)c1ccc2c(c1)nc(Nc1ccc(F)c(Cl)c1)c1nc(NCc3ccncc3)ncc12 [drawing 439]
53 |  |  | 2.44 | O=C(O)c1ccc2c(c1)nc(Nc1ccccc1)c1nc(NCCN3CCOCC3)ncc12 [drawing 396]

— EP2061765B1, “Serine-threonine protein kinase and PARP modulators” (Senhwa Biosciences, Inc., priority 2006, dated 2008)
